Source: ChEMBL document CHEMBL1139775, “A novel ketolide class: Synthesis and antibacterial activity of a lead compound” (2007)
Converted amounts (≈) assume the structure as drawn.

Key:
Assay type in all cases: functional
Streptococcus pyogenes [1] = assay: Antibacterial activity against Streptococcus pyogenes MLSi
Moraxella catarrhalis = assay: Antibacterial activity against Moraxella catarrhalis ATCC 23246
Staphylococcus aureus [2] = assay: Antibacterial activity against […] MLSc
Streptococcus pneumoniae [3] = assay: Antibacterial activity against erythromycin-sensitive Streptococcus pneumoniae
Haemophilus influenzae = assay: Antibacterial activity against Haemophilus influenzae ATCC 49247
Escherichia coli = assay: Antibacterial activity against Escherichia coli ATCC 25922
Streptococcus pneumoniae [4] = assay: Antibacterial activity against Streptococcus pneumoniae CI137 M
Streptococcus pyogenes [5] = assay: Antibacterial activity against erythromycin-sensitive Streptococcus pyogenes 3565
Streptococcus pneumoniae [6] = assay: Antibacterial activity against Streptococcus pneumoniae 4636 MLSc
Staphylococcus aureus [7] = assay: Antibacterial activity against erythromycin-sensitive Staphylococcus aureus ATCC 13709
Streptococcus pyogenes [8] = assay: Antibacterial activity against Streptococcus pyogenes M

Structure (SMILES)	MIC (Streptococcus pyogenes [1])	MIC (Moraxella catarrhalis)	MIC (Staphylococcus aureus [2])	MIC (Streptococcus pneumoniae [3])	MIC (Haemophilus influenzae)	MIC (Escherichia coli)	MIC (Streptococcus pneumoniae [4])	MIC (Streptococcus pyogenes [5])	MIC (Streptococcus pneumoniae [6])	MIC (Staphylococcus aureus [7])	MIC (Streptococcus pyogenes [8])
CC[C@@H]1OC(=O)[C@H](C)C(=O)[C@H](C)[C@@H](O[C@@H]2O[C@H](C)C[C@H](N(C)C)[C@H]2O)[C@@](C)(OC)C[C@@H](C)C(=O)[C@H](C)[C@H]2NC(=O)O[C@]12C	0.06 µg/mL (≈ 0.0979 µM)	0.12 µg/mL (≈ 0.196 µM)	> 128 µg/mL	0.06 µg/mL (≈ 0.0979 µM)	16 µg/mL (≈ 26.1 µM)	64 µg/mL (≈ 104 µM)	0.25 µg/mL (≈ 0.408 µM)	0.06 µg/mL (≈ 0.0979 µM)	> 128 µg/mL	0.25 µg/mL (≈ 0.408 µM)	0.25 µg/mL (≈ 0.408 µM)
CC[C@@H]1OC(=O)[C@H](C)C(=O)[C@H](C)[C@@H](O[C@@H]2O[C@H](C)C[C@H](N(C)C)[C@H]2O)[C@@](C)(OC)C[C@@H](C)C(=O)[C@H](C)[C@H]2CC(=O)O[C@]12C	0.5 µg/mL (≈ 0.817 µM)	0.5 µg/mL (≈ 0.817 µM)	> 128 µg/mL	≤ 0.06 µg/mL	16 µg/mL (≈ 26.2 µM)	128 µg/mL (≈ 209 µM)	0.12 µg/mL (≈ 0.196 µM)	0.12 µg/mL (≈ 0.196 µM)	> 128 µg/mL	0.5 µg/mL (≈ 0.817 µM)	0.12 µg/mL (≈ 0.196 µM)
CC[C@H]1OC(=O)[C@H](C)[C@@H](O[C@H]2C[C@@](C)(OC)[C@@H](O)[C@H](C)O2)[C@H](C)[C@@H](O[C@@H]2O[C@H](C)C[C@H](N(C)C)[C@H]2O)[C@](C)(OC)C[C@@H](C)C(=O)[C@H](C)[C@@H](O)[C@]1(C)O [CLARITHROMYCIN]	2 µg/mL (≈ 2.67 µM)	≤ 0.25 µg/mL	> 32 µg/mL	≤ 0.06 µg/mL	8 µg/mL (≈ 10.7 µM)	64 µg/mL (≈ 85.6 µM)	8 µg/mL (≈ 10.7 µM)	≤ 0.06 µg/mL	> 128 µg/mL	0.25 µg/mL (≈ 0.334 µM)	2 µg/mL (≈ 2.67 µM)
